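Step 1: Grow cells in 96-well plates. Step 2: Expose to compound for 48 hours at 5 concentrations. Step 3: Interpolate endpoints linearly; if unreached, use highest concentration. GI50 = concentration required for 50% inhibition of growth. TGI is the concentration that stops growth completely.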
What was measured:
Assay in all cases: NCI anticancer screen, dose series, 48 h
[1] = tested on: HCC-2998 colon
[2] = tested on: SF-539 CNS
[3] = tested on: HL-60(TB) leukemia
[4] = tested on: NCI-H226 lung
[5] = tested on: HOP-92 NSCLC
[6] = tested on: U251 CNS
[7] = tested on: HCT-15 colon
[8] = tested on: OVCAR-3 ovarian
[9] = tested on: A549 NSCLC
[10] = tested on: OVCAR-5 ovarian
[11] = tested on: NCI/ADR-RES ovarian
[12] = tested on: UACC-257 melanoma
[13] = tested on: IGROV1 ovarian
[14] = tested on: DU-145 prostate
[15] = tested on: SW-620 colon
[16] = tested on: UO-31 renal
[17] = tested on: SK-OV-3 ovarian
[18] = tested on: SK-MEL-2 melanoma
[19] = tested on: MDA-MB-435
[20] = tested on: OVCAR-8 ovarian
[21] = tested on: SNB-19 CNS
[22] = tested on: NCI-H460 lung
[23] = tested on: RPMI-8226 leukemia
[24] = tested on: PC-3 prostate
[25] = tested on: MCF7 breast
[26] = tested on: SN12C renal
[27] = tested on: MALME-3M melanoma
[28] = tested on: HS 578T breast
[29] = tested on: MOLT-4 leukemia
[30] = tested on: RXF 393 renal
[31] = tested on: UACC-62 melanoma
[32] = tested on: SR leukemia
[33] = tested on: ACHN renal
[34] = tested on: T-47D breast
[35] = tested on: NCI-H23 lung
[36] = tested on: HOP-62 NSCLC
[37] = tested on: A498 renal
[38] = tested on: M14 melanoma
[39] = tested on: HT29 colon
[40] = tested on: LOX IMVI melanoma
[41] = tested on: HCT-116 colon
[42] = tested on: SK-MEL-28 melanoma
[43] = tested on: SF-268 CNS
[44] = tested on: K-562 leukemia
[45] = tested on: CAKI-1 renal
[46] = tested on: COLO 205 colon
[47] = tested on: KM12 colon
[48] = tested on: MDA-MB-231 breast
[49] = tested on: CCRF-CEM leukemia
[50] = tested on: EKVX NSCLC
[51] = tested on: TK-10 renal
[52] = tested on: 786-0 renal
[53] = tested on: SNB-75 CNS
[54] = tested on: SF-295 CNS
[55] = tested on: SK-MEL-5 melanoma
[56] = tested on: OVCAR-4 ovarian
[57] = tested on: NCI-H522 lung

SMILES: N=c1c2c(=O)n3c(nc2nc2sc4ccc(Cl)cc4n12)-c1ccccc1Sc1ccccc1-3
- GI50 [1]: 3.12 µM
- TGI [1]: 12.8 µM
- GI50 [2]: 3.34 µM
- TGI [2]: 18.4 µM
- GI50 [3]: 2.21 µM
- TGI [3]: 6.63 µM
- GI50 [4]: 2.92 µM
- TGI [4]: 21.5 µM
- GI50 [5]: 0.762 µM
- TGI [5]: 6.08 µM
- GI50 [6]: 2.8 µM
- TGI [6]: 12.6 µM
- GI50 [7]: 2.96 µM
- TGI [7]: 14.5 µM
- GI50 [8]: 1.89 µM
- TGI [8]: 8.27 µM
- GI50 [9]: 1.98 µM
- TGI [9]: 12.5 µM
- GI50 [10]: 4.62 µM
- TGI [10]: 24 µM
- GI50 [11]: 2.05 µM
- TGI [11]: 7.5 µM
- GI50 [12]: 3.14 µM
- TGI [12]: 9.39 µM
- GI50 [13]: 3.81 µM
- TGI [13]: 18.3 µM
- GI50 [14]: 4.31 µM
- TGI [14]: 19.7 µM
- GI50 [15]: 3.05 µM
- TGI [15]: 16.1 µM
- GI50 [16]: 2.29 µM
- TGI [16]: 9.97 µM
- GI50 [17]: 3.7 µM
- TGI [17]: 25.2 µM
- GI50 [18]: 2.07 µM
- TGI [18]: 5.99 µM
- GI50 [19]: 2.67 µM
- TGI [19]: 13.1 µM
- GI50 [20]: 2.95 µM
- TGI [20]: 11.8 µM
- GI50 [21]: 4.31 µM
- TGI [21]: 20.4 µM
- GI50 [22]: 2.07 µM
- TGI [22]: 6.98 µM
- GI50 [23]: 1.44 µM
- TGI [23]: > 100 µM
- GI50 [24]: 2.6 µM
- TGI [24]: > 100 µM
- GI50 [25]: 3.06 µM
- TGI [25]: 21.8 µM
- GI50 [26]: 2.94 µM
- TGI [26]: 14 µM
- GI50 [27]: 2.15 µM
- TGI [27]: 9.21 µM
- GI50 [28]: 2.2 µM
- TGI [28]: 10.1 µM
- GI50 [29]: 1.77 µM
- TGI [29]: 9.64 µM
- GI50 [30]: 3.23 µM
- TGI [30]: 16.2 µM
- GI50 [31]: 1.28 µM
- TGI [31]: 3.27 µM
- GI50 [32]: 2.15 µM
- TGI [32]: 9.14 µM
- GI50 [33]: 2.61 µM
- TGI [33]: 16.9 µM
- GI50 [34]: 2.54 µM
- TGI [34]: 7.23 µM
- GI50 [35]: 1.9 µM
- TGI [35]: 7.49 µM
- GI50 [36]: 3.64 µM
- TGI [36]: 28.3 µM
- GI50 [37]: 0.371 µM
- TGI [37]: 3.6 µM
- GI50 [38]: 2.99 µM
- TGI [38]: 10.6 µM
- GI50 [39]: 3.8 µM
- TGI [39]: 18 µM
- GI50 [40]: 2.69 µM
- TGI [40]: 20.2 µM
- GI50 [41]: 2.34 µM
- TGI [41]: 10.3 µM
- GI50 [42]: 3.91 µM
- TGI [42]: 16.4 µM
- GI50 [43]: 3.52 µM
- TGI [43]: 18.3 µM
- GI50 [44]: 1.61 µM
- TGI [44]: > 100 µM
- GI50 [45]: 2.36 µM
- TGI [45]: 12.9 µM
- GI50 [46]: 2.24 µM
- TGI [46]: 5.24 µM
- GI50 [47]: 2.9 µM
- TGI [47]: 12.4 µM
- GI50 [48]: 2.56 µM
- TGI [48]: 16.2 µM
- GI50 [49]: 2.32 µM
- TGI [49]: > 100 µM
- GI50 [50]: 1.42 µM
- TGI [50]: 8.97 µM
- GI50 [51]: 4.3 µM
- TGI [51]: 47.1 µM
- GI50 [52]: 2.55 µM
- TGI [52]: 6.84 µM
- GI50 [53]: 2.45 µM
- TGI [53]: 9.66 µM
- GI50 [54]: 1.41 µM
- TGI [54]: 5.79 µM
- GI50 [55]: 1.42 µM
- TGI [55]: 3.86 µM
- GI50 [56]: 3.5 µM
- TGI [56]: 19.6 µM
- GI50 [57]: 1.76 µM
- TGI [57]: 11.4 µM
